assay: pKa of the acidic agrochemically active ingredient; format: physicochemical; conditions: not given
Source text: In the case of using the above-described acidic agrochemically active ingredient having the prescribed pKa, the pKa of the ingredient can be measured by, for example, a method described in “Jikken Kagaku Koza 5, (Thermal measurement and Equilibrium)”, Maruzene, p. 469-474, Jan. 20 (1958) and the like.

Q: Which pKa does the source give for `COCc1cccc(C(O)c2nc(OC)cc(OC)n2)c1NS(=O)(=O)C(F)F` (stereo not drawn) [Compound A, 2-[(4,6-dimethoxypyrimidin-2-yl)hydroxymethyl]-6-methoxymethyl-N-difuloromethanesulfonylanilide] here?
A: 5.75

Q: With `CCc1cccc(C(O)c2nc(OC)cc(OC)n2)c1NS(=O)(=O)C(F)F` (stereo not drawn) [Compound B, 2-[(4,6-dimethoxypyrimidin-2-yl)hydroxymethyl]-6-ethyl-N-difuloromethanesulfonylanilide] as the molecule, how does the pKa read?
A: 6.17

Q: With `CCOP(=O)(Sc1ccccc1)Sc1ccccc1` [EDDP] as the molecule, how does the pKa read?
A: 10.5

Q: With `CNC(=O)Oc1ccccc1OC(C)C` [PHC] as the molecule, how does the pKa read?
A: 11.5

Q: Which pKa does the source give for `COC(=O)c1ccccc1CS(=O)(=O)NC(=O)Nc1nc(OC)cc(OC)n1` [bensulfuron-methyl, methyl α-(4,6-dimethoxypyrimidin-2-ylcarbamoylsulfamoyl)-o-toluate] here?
A: 5.03

Q: Which pKa does the source give for `Cc1cccc2sc3nncn3c12` [tricyclazole, 5-methyl-1,2,4-triazolo[3,4-b]benzothiazole] here?
A: 1.6

same assay, conditions: read-out: pKa

Q: For `COc1cc(OC)nc(NC(=O)NS(=O)(=O)c2c(-c3nnn(C)n3)cnn2C)n1` [azimsulfuron, 1-(4,6-dimethoxypyrimidin-2-yl)-3-[1-methyl-4-(2-methyl-2H-tetrazol-5-yl)pyrazol-5-ylsulfonyl]urea], which pKa is on record?
A: 3.6

Q: With `COc1cc(OC)nc(NC(=O)NS(=O)(=O)c2c(Cl)nc3ccccn23)n1` [imazosulfuron, 1-(2-chloroimidazo[1,2-a]pyridin-3-ylsulfonyl)-3-(4,6-dimethoxypyrimidin-2-yl)urea] as the molecule, how does the pKa read?
A: 4

Q: For `CCOC(=O)c1cnn(C)c1S(=O)(=O)NC(=O)Nc1nc(OC)cc(OC)n1` [pyrazosulfuron-ethyl, ethyl 5-(4,6-dimethoxypyrimidin-2-ylcarbamoylsulfamoyl)-1-methylpyrazole-4-carboxylate], which pKa is on record?
A: 3.91

Source: patent US7638506B2, “Granular agrochemical composition” (Kumiai Chemical Industry Co., Ltd., priority 2002, dated 2009)
